Where a SMILES comes first, the peptide text is derived from it.
Experiments:
Nup100(1-307) = format: binding, S. cerevisiae; details: AF488-labeled
Procedure: (§1) The expression of GST- Nsp1(497-609) in BL21(DE3) cells grown in LB media was induced at OD600nm = 0.4–0.6, followed by incubation at 37°C for 3–5 hr. The GST-tagged S. cerevisiae pGEX-Nup100(1-307), Nup100(1-610), Nup116(348-458) and Nup116(348-458)F > A were expressed in T7 Shuffle cells (NEB) that were grown in Dynamite media ([Taylor et al., 2017]) until OD600nm = 0.9 before induction with IPTG at 37°C for 3 hr. All the GST-tagged Nup fragments were purified using glutathione-sepharose affinity chromatography, as described for the GST-GFP-NLS above, and dialyzed into PBS before storage.
(§2) The bead halo assay was carried out as described with minor modifications ([Patel and Rexach, 2008]), using […] polystyrene beads coated with neutravidin (for biotinylated proteins) or glutathione (for GST-fusion proteins) (Spherotech, Lake Forest, IL). Beads were coated overnight at 4°C at saturating concentrations per manufacturers’ instructions and rinsed 2x in binding buffer (20 mM HEPES [pH 7.4], 150 mM KOAc, 2 mM Mg(OAc)2, 1 mM DTT, 0.1% Tween-20). Immediately prior to the assay, fluorescent bait proteins and beads were combined with 4x assay buffer (40 mM EDTA, 40 mg/ml BSA, 500 mM NaCl, and 0.2% Tween) to a total of 40 µL per well, in optical glass-bottom 96-well plates (Cellvis, Mountain View, CA). Reactions were allowed to equilibrate at room temperature for a minimum of 30 min prior to imaging at 100x on an LSM800 confocal microscope (Zeiss, Oberkochen, Germany). Intensity profiles comparing the maximum rim intensity to the background were plotted in ImageJ (NIH) by an investigator blinded to experimental conditions.

Nup100(1-610) = format: binding, S. cerevisiae; details: AF488-labeled
Procedure: as §1, §2

Nsp1(497-609) = experiment: Bead halo assay, GST-Nsp1(497-609) FxFG domain; format: binding, S. cerevisiae; details: AF488-labeled
Procedure: as §1
as §2, with “Reactions were allowed to equilibrate at room temperature for a minimum of 30 min prior to imaging at 100x on an LSM800 confocal microscope (Zeiss, Oberkochen, Germany). Intensity profiles comparing the maximum rim intensity to the background were plotted in ImageJ (NIH) by an investigator blinded to experimental conditions.” left out

importin α = experiment: DPR aggregation assay and western blot, ImpA; format: biochemical, human; details: for ImpA band density, Pellet / ImpA band density, Supernatant: 100 µM 10mer in 2.5 mg/ml HEK lysate, normalized to untreated HEK; for ImpA band density, % untr control: Fig 5-suppl 3C, normalized to untreated HEK on same membrane;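 for ImpA band density, % untr control: RNA rows contain added 20 µg total HEK RNA while no-RNA rows lack it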
Procedure: (§3) Supernatant and pellet fractions (for all 5 DPRs, and control/buffer only) were prepared as in the nuclear transport assays, by adding 100 µM 10mers to 2.5 mg/ml HEK lysate in 100 µL TRB. Supernatants were boiled in Laemmli (BioRad) for 5 min. Pellets were boiled for 15 min followed by sonication in order to fully disperse aggregates for SDS-PAGE. Equal volumes of supernatant and pellet fractions were run on 4–12% Bolt Bis-Tris Plus gels (ThermoFisher), transferred to nitrocellulose membrane using an iBlot2 dry blotting system (ThermoFisher). Protein loading was analyzed by BLOT-Faststain (G-biosciences, St. Louis, MO), according to the manufacterers’ instructions. For immunodetection, membranes were blocked with 5% non-fat milk in TBST and probed by sequential incubation with the primary antibodies as detailed in the table below. Detection was by HRP-conjugated secondary antibodies/chemiluminescence using an ImageQuant LAS 4000 system (GE, Chicago, IL). To permit sequential probing of membranes without stripping, signals were quenched by incubation with prewarmed 30% H20_2 for 20 min ([Sennepin et al., 2009]). Band intensities were measured by ImageQuant software. For pellet vs. supernatant fractions, all were expressed as percent untreated control. For blots in Figure 1E, samples were run on 4–20% SDS PAGE minigels (ThermoFisher) and blotted to PVDF membranes (Immun-Blot PVDF, Bio-Rad) using the Bio-Rad TransBlot Turbo apparatus, and probed as above. The chemiluminescence signal was captured with a Bio-Rad ChemiDoc XRS+ digital imaging system.

RanGAP1 = experiment: DPR aggregation assay and western blot, RanGAP1; format: biochemical, human; details: for RanGAP1 band density, Pellet / RanGAP1 band density, Supernatant: 100 µM 10mer in 2.5 mg/ml HEK lysate, normalized to untreated HEK; for RanGAP1 band density, % untr control: Fig 5-suppl 3C, normalized to untreated HEK on same membrane
Procedure: as §3

RCC1 = experiment: DPR aggregation assay and western blot, RCC1 (negative control); format: biochemical, human; details: 100 µM 10mer in 2.5 mg/ml HEK lysate, normalized to untreated HEK
Procedure: as §3

TDP-43 = experiment: DPR aggregation assay and western blot, TDP-43; format: biochemical, human; details: for TDP43 band density, % untr control: Fig 5-suppl 3C, normalized to untreated HEK on same membrane; for TDP43 band density, % control: normalized to untreated HEK cells on the same membrane
Procedure: as §3

FUS = experiment: DPR aggregation assay and western blot, FUS; format: biochemical, human; details: normalized to untreated HEK cells on the same membrane
Procedure: as §3

RPS6 = experiment: DPR aggregation assay and western blot, RPS6; format: biochemical, human; details: for Rps6 band density, % untr control: Fig 5-suppl 3C, normalized to untreated HEK on same membrane; for RPS6 band density, % control: normalized to untreated HEK cells on the same membrane;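 for Rps6 band density, % untr control: RNA rows contain added 20 µg total HEK RNA while no-RNA rows lack it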
Procedure: as §3

Rps25 = experiment: DPR aggregation assay and western blot, Rps25; format: biochemical, human; details: Fig 5-suppl 3C, normalized to untreated HEK on same membrane;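 note: RNA rows contain added 20 µg total HEK RNA while no-RNA rows lack it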
Description: Supplement elife-51685-fig5-data1.xlsx, sheet "Figure 5-figure suppl 3" | column: Rps25

[1] = Pellet, no RNA (Untreated), blot 1
[2] = Pellet, no RNA (Untreated), blot 2
[3] = Supernatant, no RNA (Untreated), blot 1
[4] = Supernatant, no RNA (Untreated), blot 2

N=C(N)NCCC[C@H](NC(=O)[C@@H]1CCCN1C(=O)[C@H](CCCNC(=N)N)NC(=O)[C@@H]1CCCN1C(=O)[C@H](CCCNC(=N)N)NC(=O)[C@@H]1CCCN1C(=O)[C@H](CCCNC(=N)N)NC(=O)[C@@H]1CCCN1C(=O)[C@H](CCCNC(=N)N)NC(=O)[C@@H]1CCCN1C(=O)[C@H](CCCNC(=N)N)NC(=O)[C@@H]1CCCN1C(=O)[C@H](CCCNC(=N)N)NC(=O)[C@@H]1CCCN1C(=O)[C@H](CCCNC(=N)N)NC(=O)[C@@H]1CCCN1C(=O)[C@H](CCCNC(=N)N)NC(=O)[C@@H]1CCCN1C(=O)[C@H](CCCNC(=N)N)NC(=O)[C@@H]1CCCN1)C(=O)O [PR10] (H-PRPRPRPRPRPRPRPRPRPR-OH; N-terminus and C-terminus assumed)
Binding to Nup100 GLFG-domain (halo intensity) (Nup100(1-307); binding buffer): modest selective binding
FG-binding with added unlabeled importin β (Nup100(1-307); + unlabeled importin β): FG-binding could be augmented
Binding to Nup100 GLFG-domain (halo intensity) (Nup100(1-610); binding buffer): modest selective binding
FG-binding with added unlabeled importin β (Nup100(1-610); + unlabeled importin β): FG-binding could be augmented
FG-binding with added unlabeled importin β (Nsp1(497-609)): FG-binding could be augmented
ImpA band density, Pellet (importin α; Blot 1): 170.0 % control
ImpA band density, Supernatant (importin α; Blot 1): 78.1 % control
ImpA band density, Pellet (importin α; Blot 2): 198.7 % control
ImpA band density, Supernatant (importin α; Blot 2): 90.0 % control
ImpA band density, % untr control (importin α; Pellet, RNA, blot 1): 171.92%
ImpA band density, % untr control (importin α; Pellet, RNA, blot 2): 154.07%
ImpA band density, % untr control (importin α; [1]): 177.99%
ImpA band density, % untr control (importin α; [2]): 181.79%
ImpA band density, % untr control (importin α; Supernatant, RNA, blot 1): 85.78%
ImpA band density, % untr control (importin α; Supernatant, RNA, blot 2): 111.13%
ImpA band density, % untr control (importin α; [3]): 79.74%
ImpA band density, % untr control (importin α; [4]): 105.29%
RanGAP1 band density, Pellet (RanGAP1; Blot 1): 413.6 % control
RanGAP1 band density, Supernatant (RanGAP1; Blot 1): 76.6 % control
RanGAP1 band density, Pellet (RanGAP1; Blot 2): 481.7 % control
RanGAP1 band density, Supernatant (RanGAP1; Blot 2): 84.2 % control
RanGAP1 band density, % untr control (RanGAP1; Pellet, RNA, blot 1): 309.83%
RanGAP1 band density, % untr control (RanGAP1; Pellet, RNA, blot 2): 267.45%
RanGAP1 band density, % untr control (RanGAP1; [1]): 288.68%
RanGAP1 band density, % untr control (RanGAP1; [2]): 278.19%
RanGAP1 band density, % untr control (RanGAP1; Supernatant, RNA, blot 1): 115.69%
RanGAP1 band density, % untr control (RanGAP1; Supernatant, RNA, blot 2): 95.48%
RanGAP1 band density, % untr control (RanGAP1; [3]): 62.58%
RanGAP1 band density, % untr control (RanGAP1; [4]): 76.25%
RCC1 band density, Pellet (RCC1; Blot 1): 27.7 % control
RCC1 band density, Supernatant (RCC1; Blot 1): 103.7 % control
RCC1 band density, Pellet (RCC1; Blot 2): 109.0 % control
RCC1 band density, Supernatant (RCC1; Blot 2): 124.4 % control
TDP43 band density, % untr control (TDP-43; Pellet, RNA, blot 1): 155.77%
TDP43 band density, % untr control (TDP-43; Pellet, RNA, blot 2): 157.99%
TDP43 band density, % untr control (TDP-43; [1]): 180.16%
TDP43 band density, % untr control (TDP-43; [2]): 165.43%
TDP43 band density, % untr control (TDP-43; Supernatant, RNA, blot 1): 71.23%
TDP43 band density, % untr control (TDP-43; Supernatant, RNA, blot 2): 80.31%
TDP43 band density, % untr control (TDP-43; [3]): 41.29%
TDP43 band density, % untr control (TDP-43; [4]): 36.83%
TDP43 band density, % control (TDP-43; Pellet, Blot 1): 424.3 % control
TDP43 band density, % control (TDP-43; Pellet, Blot 2): 185.6 % control
TDP43 band density, % control (TDP-43; Supernatant, Blot 1): 54.8 % control
TDP43 band density, % control (TDP-43; Supernatant, Blot 2): 45.9 % control
FUS band density, % control (FUS; Pellet, Blot 1): 65.8 % control
FUS band density, % control (FUS; Pellet, Blot 2): 35.2 % control
FUS band density, % control (FUS; Supernatant, Blot 1): 99.5 % control
FUS band density, % control (FUS; Supernatant, Blot 2): 123.2 % control
Rps6 band density, % untr control (RPS6; Pellet, RNA, blot 1): 396.86%
Rps6 band density, % untr control (RPS6; Pellet, RNA, blot 2): 295.15%
Rps6 band density, % untr control (RPS6; [1]): 455.82%
Rps6 band density, % untr control (RPS6; [2]): 297.04%
Rps6 band density, % untr control (RPS6; Supernatant, RNA, blot 1): 8.34%
Rps6 band density, % untr control (RPS6; Supernatant, RNA, blot 2): 9.83%
Rps6 band density, % untr control (RPS6; [3]): 2.35%
Rps6 band density, % untr control (RPS6; [4]): 1.09%
RPS6 band density, % control (RPS6; Pellet, Blot 1): 219.0 % control
RPS6 band density, % control (RPS6; Pellet, Blot 2): 275.0 % control
RPS6 band density, % control (RPS6; Supernatant, Blot 1): 3.7 % control
RPS6 band density, % control (RPS6; Supernatant, Blot 2): 6.4 % control
Rps25 band density, % untr control (Rps25; Pellet, RNA, blot 1): 302.37%
Rps25 band density, % untr control (Rps25; Pellet, RNA, blot 2): 467.96%
Rps25 band density, % untr control (Rps25; [1]): 306.71%
Rps25 band density, % untr control (Rps25; [2]): 525.42%
Rps25 band density, % untr control (Rps25; Supernatant, RNA, blot 1): 12.19%
Rps25 band density, % untr control (Rps25; Supernatant, RNA, blot 2): 16.30%
Rps25 band density, % untr control (Rps25; [3]): 0.89%
Rps25 band density, % untr control (Rps25; [4]): 1.06%

Source: paper PMC7051184, “C9orf72 arginine-rich dipeptide repeat proteins disrupt karyopherin-mediated nuclear import” (eLife, 2020)
